# Data as given in US20090118332A1, “Therapeutic Agents - 551” (AstraZeneca AB, priority 2006, published 2009).
# Target: T1, human Fatty Acid Synthase (Homo sapiens, UniProt P49327)
# T1 construct: made in house
# Experiment: Human FAS enzyme assay (decrease in NADPH fluorescence)
# Type: biochemical
# Conditions: % inhibition at a concentration of 100 μmolar
# Protocol: Human and Rat FAS Enzyme Assay.
# Fatty acid synthase is an enzyme complex that harbours seven enzymatic activities catalysing the reductive synthesis of long chain fatty acids from acetyl CoA and malonyl CoA to palmitate. When acetyl CoA and malonyl CoA are forming palmitate NADPH is consumed forming NADP. Since NADPH is fluorescent but not NADP the reaction can be measured by analysing the decrease in fluorescence.
# Compounds were added to a black 384 well plate (Matrix) in a volume of 5 μl consisting of 20% DMSO and 80% Tris buffer pH 7.5, at a top concentration of 1 mM. NADPH, 30 μl of 166.6 μM, formulated in assay buffer (0.1M Tris ph7.5, 0.1 mM EDTA, 1 mM glutathione, 0.05% BSA), was then added to all of the wells of the plate. Fatty acid synthase Human or rat enzyme (0.4 μg, produced in house), dissolved in 20 mM Tris/HCl pH 7.5, 5 mM BOG, 1 mM TCEP, 10% glycerol, 1 mM EDTA, 150 mM NaCl, was then added to the plate in a volume of 10 μl. Enzyme was added to all but the last two columns of the plate, to which, 10 μl of assay buffer was added (0.1M Tris ph7.5, 0.1 mM EDTA, 1 mM glutathione, 0.05% BSA) to provide a no enzyme assay control. Following a 15-minute incubation period, at room temperature, the plates were read on an Envision plate reader using 340 nm excitation and 460 nm emission filters. This served as a time zero background read. Substrates (an equal mix of both malonyl and acetyl CoA) were then added to the plates in a total volume of 5 μl. The concentrations of malonyl and acetyl CoA in the mixture were 500 μM and 150 μM respectively. Both were prepared as 10 mM stock solutions in distilled water and were subsequently diluted to working concentrations in assay buffer. Plates were then incubated for a further 60 minutes, at room temperature, before being read again on the Envision reader using the same parameters as previously used. The data was analysed by subtracting the background time zero data from that generated following the final 60 minute incubate and the percent inhibition compared to the maximum and minimum assay controls was determined. Sigmoid curves were fitted using Origin 7.5 Client software and IC50 values were determined.
# T1 sequence (P49327 whole entry): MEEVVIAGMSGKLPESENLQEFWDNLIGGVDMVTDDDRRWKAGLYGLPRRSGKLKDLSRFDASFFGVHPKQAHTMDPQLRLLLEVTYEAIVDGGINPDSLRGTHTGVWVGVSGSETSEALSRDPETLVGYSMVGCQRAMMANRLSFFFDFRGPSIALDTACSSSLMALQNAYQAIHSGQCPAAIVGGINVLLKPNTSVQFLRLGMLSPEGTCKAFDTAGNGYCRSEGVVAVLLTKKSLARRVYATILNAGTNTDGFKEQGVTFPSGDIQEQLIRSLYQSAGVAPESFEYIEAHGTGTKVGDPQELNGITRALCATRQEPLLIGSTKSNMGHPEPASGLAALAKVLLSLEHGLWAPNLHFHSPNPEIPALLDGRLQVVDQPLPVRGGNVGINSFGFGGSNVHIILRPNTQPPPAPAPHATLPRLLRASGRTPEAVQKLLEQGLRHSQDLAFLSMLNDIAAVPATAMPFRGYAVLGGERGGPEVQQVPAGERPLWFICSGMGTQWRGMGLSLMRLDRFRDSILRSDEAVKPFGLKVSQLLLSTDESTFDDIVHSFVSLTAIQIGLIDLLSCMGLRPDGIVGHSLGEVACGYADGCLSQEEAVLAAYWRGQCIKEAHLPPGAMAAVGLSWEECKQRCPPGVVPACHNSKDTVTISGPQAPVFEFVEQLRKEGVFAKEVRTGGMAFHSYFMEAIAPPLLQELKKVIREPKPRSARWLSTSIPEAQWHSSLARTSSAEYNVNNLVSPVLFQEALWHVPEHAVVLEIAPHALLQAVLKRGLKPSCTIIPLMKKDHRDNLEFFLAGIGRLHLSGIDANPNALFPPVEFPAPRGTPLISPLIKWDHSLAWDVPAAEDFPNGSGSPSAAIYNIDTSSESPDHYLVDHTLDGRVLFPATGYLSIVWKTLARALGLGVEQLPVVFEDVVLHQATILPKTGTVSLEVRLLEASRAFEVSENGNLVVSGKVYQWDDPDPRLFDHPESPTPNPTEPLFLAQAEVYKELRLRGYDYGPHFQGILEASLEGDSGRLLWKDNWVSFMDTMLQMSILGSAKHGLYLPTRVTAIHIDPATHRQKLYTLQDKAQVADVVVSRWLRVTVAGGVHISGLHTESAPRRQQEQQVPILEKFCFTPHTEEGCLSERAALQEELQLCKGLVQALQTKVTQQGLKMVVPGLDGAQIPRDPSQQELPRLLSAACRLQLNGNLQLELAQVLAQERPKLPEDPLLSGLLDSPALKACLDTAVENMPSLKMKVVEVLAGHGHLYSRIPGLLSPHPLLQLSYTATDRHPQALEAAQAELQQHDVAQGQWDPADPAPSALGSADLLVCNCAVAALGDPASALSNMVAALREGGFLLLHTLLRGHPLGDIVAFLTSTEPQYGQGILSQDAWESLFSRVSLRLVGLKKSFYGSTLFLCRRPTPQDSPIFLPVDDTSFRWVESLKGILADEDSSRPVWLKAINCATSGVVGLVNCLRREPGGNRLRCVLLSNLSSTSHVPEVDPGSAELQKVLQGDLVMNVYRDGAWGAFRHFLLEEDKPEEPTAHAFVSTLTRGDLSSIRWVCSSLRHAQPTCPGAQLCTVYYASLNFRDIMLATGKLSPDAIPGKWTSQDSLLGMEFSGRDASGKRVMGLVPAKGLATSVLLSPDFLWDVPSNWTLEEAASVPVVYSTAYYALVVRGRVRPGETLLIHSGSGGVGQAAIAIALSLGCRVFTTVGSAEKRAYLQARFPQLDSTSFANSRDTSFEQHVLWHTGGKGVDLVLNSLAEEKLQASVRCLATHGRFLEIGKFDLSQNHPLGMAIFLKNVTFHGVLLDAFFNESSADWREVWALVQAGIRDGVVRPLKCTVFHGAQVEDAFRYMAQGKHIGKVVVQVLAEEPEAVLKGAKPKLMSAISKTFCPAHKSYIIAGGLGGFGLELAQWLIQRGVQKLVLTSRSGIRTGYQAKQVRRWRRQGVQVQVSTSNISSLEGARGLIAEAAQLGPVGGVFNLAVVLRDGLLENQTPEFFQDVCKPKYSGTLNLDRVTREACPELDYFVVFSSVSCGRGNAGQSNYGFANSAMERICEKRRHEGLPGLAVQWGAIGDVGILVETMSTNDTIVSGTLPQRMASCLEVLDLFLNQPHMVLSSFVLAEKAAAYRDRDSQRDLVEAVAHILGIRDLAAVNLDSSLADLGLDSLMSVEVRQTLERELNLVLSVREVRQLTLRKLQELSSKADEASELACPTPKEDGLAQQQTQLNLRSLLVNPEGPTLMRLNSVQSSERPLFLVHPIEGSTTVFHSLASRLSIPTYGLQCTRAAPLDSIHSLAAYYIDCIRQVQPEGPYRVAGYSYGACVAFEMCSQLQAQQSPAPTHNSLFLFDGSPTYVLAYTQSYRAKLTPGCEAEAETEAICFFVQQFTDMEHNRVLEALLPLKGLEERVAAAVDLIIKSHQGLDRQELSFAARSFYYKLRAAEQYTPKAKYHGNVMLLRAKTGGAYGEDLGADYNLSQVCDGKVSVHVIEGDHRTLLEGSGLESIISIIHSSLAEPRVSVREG
row,Compound,inhibition at 100 µM [%]
1,"Cc1ccc(C(=O)N2CCC(c3ccc(C#N)cc3)CC2)cc1NC(=O)NCc1ccoc1 [Example 89, 1-[5-[4-(4-cyanophenyl)piperidine-1-carbonyl]-2-methyl-phenyl]-3-(3-furylmethyl)urea]",93.1
2,"Cc1ccc(C(=O)N2CCC(c3ccc(C#N)cc3)CC2)cc1NC(=O)NCCCS(C)(=O)=O [Example 223, 1-[5-[4-(4-cyanophenyl)piperidine-1-carbonyl]-2-methyl-phenyl]-3-(3-methylsulfonylpropyl)urea]",92.8
3,"Cc1ccc(C(=O)N2CCC(c3ccc(C#N)cc3)CC2)cc1NC(=O)NCCC(=O)NCCO [Example 230, 3-[[5-[4-(4-cyanophenyl)piperidine-1-carbonyl]-2-methyl-phenyl]carbamoylamino]-N-(2-hydroxyethyl)propanamide]",94.3
4,"Cc1ccc(C(=O)N2CCC(c3ccc(Cl)cc3)CC2)cc1NC(=O)NC(C)C [Example 359, 1-[5-[4-(4-chlorophenyl)piperidine-1-carbonyl]-2-methyl-phenyl]-3-propan-2-yl-urea]",92.1
5,"Cc1ccc(C(=O)N2CCC(c3ccc(C#N)cc3)CC2)cc1NC(=O)NCCC(=O)NC(C)C [Example 129, 3-[[5-[4-(4-cyanophenyl)piperidine-1-carbonyl]-2-methyl-phenyl]carbamoylamino]-N-propan-2-yl-propanamide]",99.1
6,"Cc1ccc(C(=O)N2CCC(c3ccc(C#N)cc3)CC2)cc1NC(=O)NC12CC3CC(CC(O)(C3)C1)C2 [Example 197, 1-[5-[4-(4-cyanophenyl)piperidine-1-carbonyl]-2-methyl-phenyl]-3-(3-hydroxy-1-adamantyl)urea]",84.4
7,"Cc1ccc(C(=O)N2CCC(c3ccc(C#N)cc3)CC2)cc1NC(=O)NCCc1cccc(F)c1 [Example 68, 1-[5-[4-(4-cyanophenyl)piperidine-1-carbonyl]-2-methyl-phenyl]-3-[2-(3-fluorophenyl)ethyl]urea]",102
8,"Cc1ccc(NC(=O)NC2CCCC2)cc1C(=O)N1CCC(c2ccc(C#N)cc2)CC1 [Example 21, 1-[3-[4-(4-cyanophenyl)piperidine-1-carbonyl]-4-methyl-phenyl]-3-cyclopentyl-urea]",78.8
9,"Cc1ccc(C(=O)N2CCC(c3ccc(C#N)cc3)CC2)cc1NC(=O)N1CC(N)C1 [Example 306, 3-amino-N-[5-[4-(4-cyanophenyl)piperidine-1-carbonyl]-2-methyl-phenyl]azetidine-1-carboxamide]",84.7
10,"Cc1ccc(C(=O)N2CCC(c3ccc(C#N)cc3)CC2)cc1NC(=O)NCCC(=O)Nc1ccccn1 [Example 170, 3-[[5-[4-(4-cyanophenyl)piperidine-1-carbonyl]-2-methyl-phenyl]carbamoylamino]-N-pyridin-2-yl-propanamide]",94.6
11,"CSCCNC(=O)Nc1cc(C(=O)N2CCC(c3ccc(C#N)cc3)CC2)ccc1C [Example 156, 1-[5-[4-(4-cyanophenyl)piperidine-1-carbonyl]-2-methyl-phenyl]-3-(2-methylsulfanylethyl)urea]",92.2
12,"Cc1ccc(C(=O)N2CCC(c3ccc(C#N)cc3)CC2)cc1NC(=O)NCCCN1CCOCC1 [Example 146, 1-[5-[4-(4-cyanophenyl)piperidine-1-carbonyl]-2-methyl-phenyl]-3-(3-morpholin-4-ylpropyl)urea]",89.7
13,"Cc1ccc(C(=O)N2CCC(c3ccc(C#N)cc3)CC2)cc1NC(=O)NCc1ccc(-c2csnn2)cc1 [Example 75, 1-[5-[4-(4-cyanophenyl)piperidine-1-carbonyl]-2-methyl-phenyl]-3-[[4-(thiadiazol-4-yl)phenyl]methyl]urea]",87.4
14,"COC(=O)CNC(=O)CNC(=O)Nc1cc(C(=O)N2CCC(c3ccc(C#N)cc3)CC2)ccc1C [Example 237, Methyl 2-[[2-[[5-[4-(4-cyanophenyl)piperidine-1-carbonyl]-2-methyl-phenyl]carbamoylamino]acetyl]amino]acetate]",90.9
15,"Cc1ccc(C(=O)N2CCC(c3ccc(C#N)cc3)CC2)cc1NC(=O)NCCNC(=O)OC(C)(C)C [Example 102, tert-butyl N-[2-[[5-[4-(4-cyanophenyl)piperidine-1-carbonyl]-2-methyl-phenyl]carbamoylamino]ethyl]carbamate]",91.9
16,"Cc1ccc(C(=O)N2CCC(c3ccc(C#N)cc3)CC2)cc1NC(=O)NCc1cn(C)nc1C [Example 258, 1-[5-[4-(4-cyanophenyl)piperidine-1-carbonyl]-2-methyl-phenyl]-3-[(1,3-dimethylpyrazol-4-yl)methyl]urea]",89
17,"Cc1ccc(C(=O)N2CCC(c3ccc(C#N)cc3)CC2)cc1NC(=O)NCCc1ccncc1 [Example 62, 1-[5-[4-(4-cyanophenyl)piperidine-1-carbonyl]-2-methyl-phenyl]-3-(2-pyridin-4-ylethyl)urea]",101
18,"Cc1ccc(C(=O)N2CCC(c3ccc(C#N)cc3)CC2)cc1NC(=O)N(C)Cc1ccccc1 [Example 381, 1-benzyl-3-[5-[4-(4-cyanophenyl)piperidine-1-carbonyl]-2-methylphenyl]-1-methylurea]",71.1
19,"Cc1ccc(C(=O)N2CCC(c3ccc(C#N)cc3)CC2)cc1NC(=O)N[C@@H]1CCOC1 [Example 199, 1-[5-[4-(4-cyanophenyl)piperidine-1-carbonyl]-2-methyl-phenyl]-3-[(3R)-oxolan-3-yl]urea]",96.3
20,"CC(=O)N1CC(NC(=O)Nc2cc(C(=O)N3CCC(c4ccc(C#N)cc4)CC3)ccc2C)C1 [Example 310, 3-(1-acetylazetidin-3-yl)-1-[5-[4-(4-cyanophenyl)piperidine-1-carbonyl]-2-methyl-phenyl]urea]",94.5
21,"Cc1ccc(C(=O)N2CCC(c3ccc(C(=O)N(C)C)cc3)CC2)cc1NC(=O)NCc1ccccc1 [Example 123, 4-[1-[3-(benzylcarbamoylamino)-4-methyl-benzoyl]-4-piperidyl]-N,N-dimethyl-benzamide]",79.7
22,"Cc1ccc(C(=O)N2CCC(c3ccc(C#N)cc3)CC2)cc1NC(=O)NCCN(C)C [Example 145, 1-[5-[4-(4-cyanophenyl)piperidine-1-carbonyl]-2-methyl-phenyl]-3-(2-dimethylaminoethyl)urea]",79.3
23,"Cc1ccc(C(=O)N2CCC(c3ccc(C#N)cc3)CC2)cc1NC(=O)NC1CCN(S(C)(=O)=O)CC1 [Example 281, 1-[5-[4-(4-cyanophenyl)piperidine-1-carbonyl]-2-methyl-phenyl]-3-(1-methylsulfonyl-4-piperidyl)urea]",99.7
24,"CCC(CC)NC(=O)Nc1cc(C(=O)N2CCC(c3ccc(C#N)cc3)CC2)ccc1C [Example 53, 3-[5-[4-(4-cyanophenyl)piperidine-1-carbonyl]-2-methyl-phenyl]-1-pentan-3-yl-urea]",90.8
25,"Cc1ccc(C(=O)N2CCC(c3ccc(C(F)(F)F)cc3)CC2)cc1NC(=O)NCCNS(C)(=O)=O [Example 341, 3-(2-methanesulfonamidoethyl)-1-[2-methyl-5-[4-[4-(trifluoromethyl)phenyl]piperidine-1-carbonyl]phenyl]urea]",95.4
26,"CCS(=O)(=O)N1CCCC(NC(=O)Nc2cc(C(=O)N3CCC(c4ccc(C#N)cc4)CC3)ccc2C)C1 (centres unmarked) [Example 297, 3-[5-[4-(4-cyanophenyl)piperidine-1-carbonyl]-2-methyl-phenyl]-1-(1-ethylsulfonyl-3-piperidyl)urea]",97.9
